{"source": "patent US6368604B1", "about": "“Non-pyrogenic derivatives of lipid A” (priority 1997, dated 2002)", "key": {"HIV-1": {"tested_on": "HIV-1", "details": "in vivo; cited from earlier work"}, "mice": {"tested_on": "mice", "details": "cited from earlier work"}, "human PBMCs [1]": {"tested_on": "human PBMCs", "assay": "Human PBMC activation assay: TNFα, IL-1β, IL-6 in culture supernatants by capture ELISA", "type": "cell-based", "details": "human PBMC culture supernatants after stimulation, 1 μg/ml, 8 hr", "method": "50 ml of whole blood is mixed with an equal volume of RPMI (Life Technologies) and PBMCs are isolated by density gradient using lymphocyte separation medium according to the manufacturer's directions (Organon). The PBMCs are washed twice with RPMI then resuspended in 6 ml of ice cold sterile water and placed on ice for 30 sec to lyse the erythrocytes. The osmolarity is adjusted by adding 2 ml of ice cold 3.5% (w/v) NaCl; the PBMCs are harvested by centrifugation, washed with RPMI and resuspended in complete medium (CM; RPMI containing pyruvate, glutamine, PenStrep, and 10% endotoxin-free human AB serum (Life Technologies) at a density of 6×10^6 PBMCs/ml. CM containing the preparations to be assayed are placed into duplicate wells of a 96-well flat bottom culture late (Costar) at double the target final concentration. An equal volume of CM containing the PBMCs then is added to these wells and the culture plates are incubated at 37° C. in 5% CO2 for 8 hr. The supernatants are then removed and stored at […] Quantitation of TNFα, IL-1β, IL-6, MIP-1α, MIP-1β and RANTES in these culture supernatants is achieved by capture ELISA (R&D Systems).\n(§1) Quantitation of TNFα, IL-1β, IL-6, MIP-1α and MIP-1β in these culture supernatants was achieved by capture ELISA (R&D Systems).\nThis observation was reproduced using four unrelated PBMC donors and two separate LPS preparations. […]"}, "human PBMCs [2]": {"tested_on": "human PBMCs", "assay": "LPS antagonist activity: TNFα from human PBMCs stimulated with W3110 LPS mixed with test preparation", "type": "cell-based", "details": "1 μg/ml mixed with W3110 LPS 10 ng/ml, 8 hr", "method": "as §1\nW3110 LPS (also cultured at 37° C.) from 1 ng/ml to 100 ng/ml alone and W3110 LPS (10 ng/ml) mixed with synthetic lipid IVA (1 μg/ml) were used as controls."}, "human PBMCs [3]": {"tested_on": "human PBMCs", "assay": "β chemokine (MIP-1α, MIP-1β, RANTES) secretion from human PBMCs, dose and time course, capture ELISA", "type": "cell-based"}, "HIV-1BAL": {"tested_on": "HIV-1BAL", "assay": "Replication of HIV-1BAL in human PBMC-derived monocytes (p24 ELISA)", "type": "cell-based", "details": "1000, 100 and 10 ng/ml for 24 hours before infection; p24 after a further 19 days", "method": "FIG. 5. Lipid A antagonist, lipid IVA, inhibits HIV replication. PBMCs were treated with synthetic lipid IVA at 1000 ng/ml, 100 ng/ml and 10 ng/ml for 24 hours. The treated cells were subsequently infected with 0.200 ng of HIV-1BAL (Cocchi et al, supra) for 2 hours, washed twice and incubated for a further 19 days. Culture supernatants were then collected and the level of p24 in these supernatants was measured by ELISA (R&D Systems). […] Figure Legend:\nTo investigate the utility of the aforementioned findings, we investigated whether commercially available synthetic lipid IVA (ICN Inc.) suppressed the replication of HIV-1BAL in human PBMC-derived monocytes. Therefore, PBMCs were obtained as outlined in Section 6, see above, and placed into 12 well culture flat-bottom plate and incubated in CM (see example 1) for […] at 37° C. in 5% Co2. Non-adherent cells were removed and the cells were given fresh media every 2 days. After 6 days, the adherent PBMCs were treated with synthetic lipid IVA at 1000 ng/ml, 100 ng/ml and 10 ng/ml for 24 hours. […] Culture supernatants were then collected and the level of p24 in these supernatants was measured by ELISA (R&D Systems).\nPBMC-derived monocytes were obtained as outlined in Section 8, see above. […] Culture supernatants were then collected and the level of p24 in these supernatants was measured by ELISA (R&D Systems)."}}, "data": [{"compound": "Cc1cn([C@H]2C[C@H](N=[N+]=[N-])[C@@H](CO)O2)c(=O)[nH]c1=O", "note": "[AZT, 3′-azido-2′,3′-dideoxythymidine]", "values": [{"measurement": "effect on viral load", "setting": "HIV-1", "value": "about 1 log reduction"}]}, {"compound": "2,3-diacyl-glucosamine-1-phosphate [lipid X]", "values": [{"measurement": "pyrogenicity / toxicity in mice", "setting": "mice", "value": "non-pyrogenic"}]}, {"compound": "CCCCCCCCCCC[C@@H](O)CC(=O)N[C@H]1[C@H](OC[C@H]2O[C@H](OP(=O)(O)O)[C@H](NC(=O)C[C@H](O)CCCCCCCCCCC)[C@@H](OC(=O)C[C@H](O)CCCCCCCCCCC)[C@@H]2O)O[C@H](CO)[C@@H](OP(=O)(O)O)[C@@H]1OC(=O)C[C@H](O)CCCCCCCCCCC", "note": "[Lipid IVA]", "values": [{"measurement": "IL-1β", "setting": "human PBMCs [1]", "value": "13 ± 1", "unit": "pg/mL"}, {"measurement": "IL-6", "setting": "human PBMCs [1]", "value": "7581 ± 20", "unit": "pg/mL"}, {"measurement": "TNFα", "setting": "human PBMCs [2]", "value": "<30", "unit": "pg/mL"}, {"measurement": "induction of β chemokines", "setting": "human PBMCs [3]", "value": "WITHOUT INDUCING […] OF β CHEMOKINES"}, {"measurement": "replication of HIV-1BAL (p24 in supernatants)", "setting": "HIV-1BAL", "value": "suppresses the replication of HIV-1BAL in a dose-dependent manner"}]}, {"compound": "CCCCCC/C=C/CCCCCC(=O)O[C@H](CCCCCCCCCCC)CC(=O)NC1C(OCC2OC(OP(=O)(O)O)C(NC(=O)CC(=O)CCCCCCCCCCC)C(OC(=O)C[C@H](O)CCCCCCC)C2O)OC(CO)C(OP(=O)(O)O)C1OC(=O)C[C@H](O)CCCCCCC", "note": "(some centres unmarked) [RsDPLA, R. sphaeroides diphosphoryl lipid A]", "values": [{"measurement": "level of RANTES after stimulation", "setting": "human PBMCs [3]; human PBMCs", "value": "not significantly elevated"}, {"measurement": "MIP-1α secretion", "setting": "human PBMCs [3]; human PBMCs, various doses", "value": "stimulated the secretion of MIP-1α and MIP-1β in a dose-dependent manner"}, {"measurement": "MIP-1β secretion", "setting": "human PBMCs [3]; human PBMCs, various doses", "value": "stimulated the secretion of MIP-1α and MIP-1β in a dose-dependent manner"}, {"measurement": "time of peak production of chemokines (MIP-1α, MIP-1β) after stimulation", "setting": "human PBMCs [3]; supernatants 8, 16, 24 and 48 hr after stimulation", "value": 24, "unit": "h"}]}]}
